From patent US20230210853A1 (Halia Therapeutics, Inc., priority 2020, published 2023)

Target: T1, full-length recombinant human NEK7 (Homo sapiens, UniProt Q8TDX7)
T1 construct: full-length recombinant human NEK7; GST (N); purchased SignalChem N09-10G; host or cells: Sf9 insect cells (baculovirus)
Test: NEK7 enzymatic assay ([33P]-ATP, casein substrate)
Type: biochemical
Method: In some embodiments, the IC50 of the compounds of Structure (I), (Ia), (Ib), (Ic), (Id), (Ie), or (If) to inhibit NEK7 was determined by the concentration of the compound required to inhibit 50% of the activity of the NEK kinase.
(§1) Casein substrate (from bovine milk, hydrolyzed and partially dephosphorylated mixture of α, β and κ caseins, obtained from Sigma Aldrich, catalogue #C4765, diluted in distilled water to a final concentration of 1 mg/mL) and full-length recombinant human NEK7 (expressed by baculovirus in Sf9 insect cells using a N-terminal GST tag, obtained from SignalChem, catalogue #N09-10G, 0.1 μg/μL) were mixed in assay buffer (20 mM Hepes pH 7.5, 10 mM MgCl2, 1 mM EGTA, 0.02% Brij35, 0.02 mg/ml BSA, 0.1 mM Na3 VO4, 2 mM DTT, 1% DMSO). Compounds of interest (serial 3-fold dilution in DMSO from 10 μM to 0.5 nM) or vehicle (1% DMSO) were dispensed into the kinase reaction mixture by Acoustic technology (Echo550, nanoliter range). After incubation at room temperature for 20 minutes, the kinase reaction was initiated by addition of [^33P]-ATP (specific activity 10 μCi/μl) and the mixture was incubated at room temperature for 2 hours. The reaction was then stopped by spotting the reaction mixture on strips of phosphocellulose P81 paper. Following washing, the radioactivity of the P81 paper was measured and kinase activity data were expressed as the percent remaining kinase activity in test samples compared to vehicle reactions. IC50 values and curve fits were obtained using Prism (GraphPad Software).
as §1, with “μg/L)” for “μg/μL)”, “Na3VO4,” for “Na3 VO4,”, “(Echo550;” for “(Echo550,”

[1] = comparative compounds of Structure (II)
[2] = Table 2a, recombinant human NEK7, casein substrate

T1 sequence (Q8TDX7 whole entry): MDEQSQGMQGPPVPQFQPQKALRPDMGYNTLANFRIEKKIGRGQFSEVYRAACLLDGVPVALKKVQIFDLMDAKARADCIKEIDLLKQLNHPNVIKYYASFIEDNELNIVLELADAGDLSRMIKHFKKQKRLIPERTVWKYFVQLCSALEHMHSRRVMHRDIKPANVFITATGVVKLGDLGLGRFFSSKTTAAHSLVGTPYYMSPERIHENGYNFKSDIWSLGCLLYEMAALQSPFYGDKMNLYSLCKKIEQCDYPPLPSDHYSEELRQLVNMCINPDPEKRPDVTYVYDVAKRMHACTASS

Row | IC50 [1] [nM] | IC50 [2] [nM] | Structure (SMILES)
1 | 301 to 500 | – | CC(C)n1nc(-c2ccc3c(c2F)CCN3C(=O)Cc2cccc(C(F)(F)F)c2)c2c(N)ncnc21 [II-1, l-(5-(4-amino-1-isopropyl-1H-pyrazolo[3,4-d]pyrimidin-3-yl)-4-fluoroindolin-1-yl)-2-(3-(trifluoromethyl)phenyl)ethan-1-one]
2 | 151 to 300 | – | CC(C)n1nc(-c2ccc3c(c2F)CCN3C(=O)Cc2ccc(F)c(C(F)(F)F)c2)c2c(N)ncnc21 [II-2, 1-(5-(4-amino-1-isopropyl-1H-pyrazol[3,4-d]pyrimidin-3-yl)-4-fluoroindolin-1-yl)-2-(4-fluoro-3-(trifluoromethyl)phenyl)ethan-1-one]
3 | 151 to 300 | – | Nc1ncnc2c1c(-c1ccc3c(c1F)CCN3C(=O)Cc1cccc(C(F)(F)F)c1)nn2C1CC1 [II-4, 1-(5-(4-amino-1-cyclopropyl-1H-pyrazolo[3,4-d]pyrimidin-3-yl)-4-fluoroindolin-1-yl)-2-(3-(trifluoromethyl)phenyl)ethan-1-one]
4 | 301 to 500 | – | Cc1ccc(CC(=O)N2CCc3c2ccc(-c2nn(C(C)C)c4ncnc(N)c24)c3F)cc1C(F)(F)F [II-5, 1-(5-(4-amino01-isopropyl-1H-pyrazolo[3,4-d]pyrimidin-3-yl)-4-fluoroindolin-1-yl)-2-(4-methyl-3-(trifluoromethyl)phenyl)ethan-1-one]
5 | > 1500 | – | Cc1c(CC(=O)N2CCc3c2ccc(-c2nn(C(C)C)c4ncnc(N)c24)c3F)cccc1C(F)(F)F [II-6, 1-(5-(4-amino-1-isopropyl-1H-pyrazolo[3,4-d]pyrimidin-3-yl)-4-fluoroindolin-l-yl)-2-(2-methyl-3-(trifluoromethyl)phenyl)ethan-1-one]
6 | 151 to 300 | – | CC(C)n1nc(-c2ccc3c(c2F)CCN3C(=O)Cc2cccc(OC(F)(F)F)c2)c2c(N)ncnc21 [II-7, 1-(5-(4-amino-1-isopropyl-1H-pyrazolo[3,4-d]pyrimidin-3-yl)-4-fluoroindolin-1-yl)-2-(3-(trifluoromethoxy)phenyl)ethan-1-one]
7 | 501 to 1500 | – | CC(C)n1nc(-c2ccc3c(c2Cl)CCN3C(=O)Cc2ccc(F)c(C(F)(F)F)c2)c2c(N)ncnc21 [II-8, 1-(5-(4-amino-1-isopropyl-1H-pyrazolo[3,4-d]pyrimidin-3-yl)-4-chloroindolin-1-yl)-2-(4-fluoro-3-(trifluoromethyl)phenyl)ethan-1-one]
8 | 501 to 1500 | – | Nc1ncnc2c1c(-c1ccc3c(c1F)CCN3C(=O)Cc1ccc(F)c(C(F)(F)F)c1)nn2C1COC1 [II-9, 1-(5-(4-amino-1-(oxetan-3-yl)-1H-pyrazolo[3,4-d]pyrimidin-3-yl)-4-fluoroindolin-1-yl)-2-(4-fluoro-3-(trifluoromethyl)phenyl)ethan-1-one]
9 | 151 to 300 | – | Nc1ncnc2c1c(-c1ccc3c(c1Cl)CCN3C(=O)Cc1ccc(F)c(C(F)(F)F)c1)nn2C1COC1 [II-10, 1-(5-(4-amino-1-(oxetan-3-yl)-1H-pyrazolo[3,4-d]pyrimidin-3-yl)-4-chloroindolin-1-yl)-2-(4-fluoro-3-(trifluoromethyl)phenyl)ethan-1-one]
10 | – | 301 to 500 | CC(C)n1nc(-c2ccc(NC(=O)Nc3cc(C(C)(C)C)no3)cc2)c2c(N)ncnc21 [Ia-1, 1-(4-(4-amino-1-isopropyl-1H-pyrazolo[3,4-d]pyrimidin-3-yl)phenyl)-3-(3-(tert-butyl)isoxazol-5-yl)urea]
11 | – | 151 to 300 | CC(C)(C)c1cc(NC(=O)Nc2ccc(-c3nn(C4COC4)c4ncnc(N)c34)cc2)on1 [Ia-2, 1-(4-(4-amino-1-(oxetan-3-yl)-1H-pyrazolo[3,4-d]pyrimidin-3-yl)phenyl)-3-(3-(tert-butyl)isoxazol-5-yl)urea]
12 | – | 151 to 300 | CC(C)(C)c1cc(NC(=O)Nc2ccc(-c3nn(C4COC4)c4ncnc(N)c34)cc2)no1 [Ia-3, 1-(4-(4-amino-1-(oxetan-3-yl)-1H-pyrazolo[3,4-d]pyrimidin-3-yl)phenyl)-3-(5-(tert-butyl)isoxazol-3-yl)urea]
13 | – | 301 to 500 | CC(C)(C)c1cc(NC(=O)Nc2ccc(-c3nn(C4CCOCC4)c4ncnc(N)c34)cc2)on1 [Ia-4, 1-(4-(4-amino-1-(tetrahydro-2H-pyran-4-yl)-1H-pyrazolo[3,4-d]pyrimidin-3-yl)phenyl)-3-(3-(tert-butyl)isoxazol-5-yl)urea]
14 | – | 151 to 300 | CC(C)(C)c1cc(NC(=O)Nc2ccc(-c3nn(C4CCOC4)c4ncnc(N)c34)cc2)on1 (stereo not shown) [Ia-5, 1-(4-(4-amino-1-(tetrahydrofuran-3-yl)-1H-pyrazolo[3,4-d]pyrimidin-3-yl)phenyl)-3-(3-(tert-butyl)isoxazol-5-yl)urea]
15 | – | 501 to 1500 | CC(C)n1nc(-c2ccc(NC(=O)Nc3cc(C(C)(C)C)no3)c(Cl)c2)c2c(N)ncnc21 [Ia-6]
16 | – | 151 to 300 | CC(C)(C)c1cc(NC(=O)Nc2ccc(-c3nn(C4CCC4)c4ncnc(N)c34)cc2)on1 [Ia-7, 1-(4-(4-amino-1-cyclobutyl-1H-pyrazolo[3,4-d]pyrimidin-3-yl)phenyl)-3-(3-(tert-butyl)isoxazol-5-yl)urea]
17 | – | < 150 | CC(C)(C)c1cc(NC(=O)Nc2ccc(-c3nn(C4CCC4)c4ncnc(N)c34)cc2F)on1 [Ia-8, 1-(4-(4-amino-1-cyclobutyl-1H-pyrazolo[3,4-d]pyrimidin-3-yl)-2-fluorophenyl)-3-(3-(tert-butyl)isoxazol-5-yl)urea]
18 | – | 301 to 500 | CC(C)(O)Cn1nc(-c2ccc(NC(=O)Nc3cc(C(C)(C)C)no3)cc2)c2c(N)ncnc21 [Ia-9, 1-(4-(4-amino-1-(2-hydroxy-2-methylpropyl)-1H-pyrazolo[3,4-d]pyrimidin-3-yl)phenyl)-3-(3-(tert-butyl)isoxazol-5-yl)urea]
19 | – | < 150 | CC(C)(O)Cn1nc(-c2ccc(NC(=O)Nc3cc(C(C)(C)C)no3)c(F)c2)c2c(N)ncnc21 [Ia-10]
20 | – | < 150 | CC(C)n1nc(-c2ccc(NC(=O)Nc3cc(C(C)(C)C)no3)c(F)c2)c2c(N)ncnc21 [Ia-11, 1-(4-(4-amino-1-isopropyl-1H-pyrazolo[3,4-d]pyrimidin-3-yl)-2-fluorophenyl)-3-(3-(tert-butyl)isoxazol-5-yl)urea]
21 | – | < 150 | CC(C)(C)c1cc(NC(=O)Nc2ccc(-c3nn(C4CCC(O)CC4)c4ncnc(N)c34)cc2F)on1 (stereo not shown) [Ia-15]
22 | – | 501 to 1500 | CC(C)(C)c1cc(NC(=O)Nc2ccc(-c3nn(C4CC(F)(F)C4)c4ncnc(N)c34)cc2F)on1 [Ia-16, 1-(4-(4-amino-1-(3,3-difluorocyclobutyl)-1H-pyrazolo[3,4-d]pyrimidin-3-yl)-2-fluorophenyl)-3-(3-(tert-butyl)isoxazol-5-yl)urea]
23 | – | 301 to 500 | CC(C)(C)c1cc(NC(=O)Nc2ccc(-c3nn(-c4ccncc4)c4ncnc(N)c34)cc2F)on1 [Ia-17, 1-(4-(4-amino-1-(pyridin-4-yl)-1H-pyrazolo[3,4-d]pyrimidin-3-yl)-2-fluorophenyl)-3-(3-(tert-butyl)isoxazol-5-yl)urea]
24 | – | 151 to 300 | CC(C)(C)c1cc(NC(=O)Nc2ccc(-c3nn(C4CCS(=O)(=O)C4)c4ncnc(N)c34)cc2F)on1 (stereo not shown) [Ia-18, 1-(4-(4-amino-1-(1,1-dioxdotetrahydrothiophen-3-yl)-1H-pyrazolo[3,4-d]pyrimidin-3-yl)-2-fluorophenyl)-3-(3-(tert-butyl)isoxazol-5-yl)urea]
25 | – | 301 to 500 | CC(C)(C)c1cc(NC(=O)Nc2ccc(-c3nn(C4CCCOC4)c4ncnc(N)c34)cc2F)on1 (stereo not shown) [Ia-19, 1-(4-(4-amino-1-(tetrahydro-2H-pyran-3-yl)-1H-pyrazolo[3,4-d]pyrimidin-3-yl)-2-fluorophenyl)-3-(3-(tert-butyl)isoxazol-5-yl)urea]
